Results published in ChEMBL document CHEMBL1152195, “The discovery of AZD5597, a potent imidazole pyrimidine amide CDK inhibitor suitable for intravenous dosing” (Bioorg Med Chem Lett, 2008).
In brackets after ≈: the same amount, converted by molar mass.

Tests used:
[1] = molecular target: Voltage-gated inwardly rectifying potassium channel KCNH2 (Homo sapiens, UniProt Q12809); experiment: Inhibition of human ERG
[2] = Dissociation constant, pKa of the compound; format: physicochemical
[3] = molecular target: Cyclin-dependent kinase 9 (Homo sapiens) (UniProt P50750); experiment: Inhibition of CDK9
[4] = Lipophilicity, log D of the compound; format: physicochemical; conditions: octanol/water
[5] = AUC in rat at 1 umol/kg, iv; format: ADME, organism-based; conditions: plasma
[6] = molecular target: Cyclin-dependent kinase 1 (Homo sapiens, UniProt P06493); experiment: Inhibition of CDK1
physchem = conditions: buffer, pH 7.4
Description: Equilibrium solubility at pH 7.4 after 24 hrs

LoVo = experiment: Antiproliferative activity against human LoVo cells assessed as inhibition of BrdU incorporation after 48 hrs; format: functional, cell-based
[7] = Protein binding in rat plasma assessed as fraction unbound; format: ADME, cell-free; conditions: read-out: PPB
[8] = molecular target: Cyclin-dependent kinase 2 (Homo sapiens, UniProt P24941); experiment: Inhibition of CDK2
[9] = Clearance in rat at 1 umol/kg, iv; format: ADME, organism-based; conditions: in vivo
[10] = Volume of distribution at steady state in rat at 1 umol/kg, iv; format: ADME, organism-based; conditions: in vivo, read-out: Vdss
[11] = Clearance in Han/Wistar rat at 2.5 umol/kg, iv; format: ADME, organism-based; conditions: in vivo
[12] = Aqueous solubility in saline at pH 5; format: physicochemical; conditions: read-out: Activity
Cytochrome P450 2C9 = Cytochrome P450 2C9 (Homo sapiens, UniProt P11712); experiment: Inhibition of CYP2C9; format: ADME
[13] = Clearance in nude mouse at 5 umol/kg, iv; format: ADME, organism-based; conditions: in vivo
[14] = Stability in rat plasma; format: ADME, cell-free; conditions: read-out: Stability
Mus musculus = experiment: AUC in nude mouse at 5 umol/kg, iv; format: ADME, organism-based, Plasma; conditions: in vivo
[15] = Protein binding in Han/Wistar rat plasma assessed as fraction unbound; format: ADME, cell-free; conditions: read-out: PPB
[16] = Stability in dog plasma; format: ADME, cell-free, Canis lupus familiaris; conditions: read-out: Stability
Cytochrome P450 1A2 = molecular target: T1, Cytochrome P450 1A2 (Homo sapiens, UniProt P05177); experiment: Inhibition of CYP1A2; format: ADME
T1 sequence (P05177 whole entry): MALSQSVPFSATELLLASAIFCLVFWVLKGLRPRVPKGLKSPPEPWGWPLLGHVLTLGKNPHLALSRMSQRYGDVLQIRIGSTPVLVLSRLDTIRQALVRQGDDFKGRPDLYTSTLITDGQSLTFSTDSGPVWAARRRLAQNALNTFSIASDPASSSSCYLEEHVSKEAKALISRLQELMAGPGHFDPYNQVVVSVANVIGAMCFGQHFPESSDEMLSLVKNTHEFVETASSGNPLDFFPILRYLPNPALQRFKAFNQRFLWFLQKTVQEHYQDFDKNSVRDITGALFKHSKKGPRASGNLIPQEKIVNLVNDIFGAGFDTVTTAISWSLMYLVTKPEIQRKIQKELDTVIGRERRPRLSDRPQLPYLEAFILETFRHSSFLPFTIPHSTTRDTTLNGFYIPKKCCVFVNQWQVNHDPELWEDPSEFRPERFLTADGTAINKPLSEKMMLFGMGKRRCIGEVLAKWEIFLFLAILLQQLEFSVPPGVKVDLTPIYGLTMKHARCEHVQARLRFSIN

Plasma = experiment: Protein binding in Beagle dog plasma assessed as fraction unbound; format: ADME, cell-free, Canis lupus familiaris
[17] = Volume of distribution at steady state in nude mouse at 5 umol/kg, iv; format: ADME, organism-based; conditions: in vivo, read-out: Vdss
[18] = Clearance in Beagle dog at 0.2 umol/kg, iv; format: ADME, organism-based, Canis lupus familiaris; conditions: in vivo
Cytochrome P450 2D6 = Cytochrome P450 2D6 (Homo sapiens, UniProt P10635); experiment: Inhibition of CYP2D6; format: ADME
[19] = Stability in human plasma; format: ADME, cell-free; conditions: read-out: Stability
Cytochrome P450 3A4 = Cytochrome P450 3A4 (Homo sapiens, UniProt P08684); experiment: Inhibition of CYP3A4; format: ADME
Canis familiaris [20] = experiment: AUC in Beagle dog at 0.2 umol/kg, iv; format: ADME, organism-based, Canis lupus familiaris, Plasma; conditions: in vivo
Canis familiaris [21] = organism: Canis familiaris; experiment: Clearance in Beagle dog assessed as liver blood flow; format: ADME, organism-based, Canis lupus familiaris; conditions: in vivo
[22] = Half life in nude mouse at 5 umol/kg, iv; format: ADME, organism-based; conditions: in vivo
[23] = Half life in Beagle dog at 0.2 umol/kg, iv; format: ADME, organism-based, Canis lupus familiaris; conditions: in vivo
Rattus norvegicus = experiment: AUC in Han/Wistar rat at 2.5 umol/kg, iv; format: ADME, organism-based, Plasma; conditions: in vivo
[24] = Volume of distribution at steady state in Beagle dog at 0.2 umol/kg, iv; format: ADME, organism-based, Canis lupus familiaris; conditions: in vivo, read-out: Vdss
[25] = Photostability assessed as half life; format: physicochemical
[26] = Volume of distribution at steady state in Han/Wistar rat at 2.5 umol/kg, iv; format: ADME, organism-based; conditions: in vivo, read-out: Vdss
Cytochrome P450 2C19 = Cytochrome P450 2C19 (Homo sapiens, UniProt P33261); experiment: Inhibition of CYP2C19; format: ADME
SW-620 = experiment: Antitumor activity against human SW620 cells xenografted nude mouse assessed as inhibition of tumor volume at 15 mg/kg, ip administered thrice a week for 3 weeks; format: functional; conditions: SW-620, ip, 504 h, route intraperitoneal
[27] = Half life in Han/Wistar rat at 2.5 umol/kg, iv; format: ADME, organism-based; conditions: in vivo
[28] = Hydrolytic stability assessed as half life at pH 4 to 10; format: physicochemical; conditions: buffer
[29] = Protein binding in nude mouse plasma assessed as fraction unbound; format: ADME, cell-free; conditions: read-out: PPB
[30] = Clearance in rat at 2.5 umol/kg, iv; format: ADME, organism-based; conditions: in vivo
[31] = Volume of distribution at steady state in rat at 2.5 umol/kg, iv; format: ADME, organism-based; conditions: in vivo, read-out: Vdss
[32] = AUC in rat at 2.5 umol/kg, iv; format: ADME, organism-based; conditions: plasma

Sequence of Cyclin-dependent kinase 9 (Homo sapiens) (P50750 whole entry): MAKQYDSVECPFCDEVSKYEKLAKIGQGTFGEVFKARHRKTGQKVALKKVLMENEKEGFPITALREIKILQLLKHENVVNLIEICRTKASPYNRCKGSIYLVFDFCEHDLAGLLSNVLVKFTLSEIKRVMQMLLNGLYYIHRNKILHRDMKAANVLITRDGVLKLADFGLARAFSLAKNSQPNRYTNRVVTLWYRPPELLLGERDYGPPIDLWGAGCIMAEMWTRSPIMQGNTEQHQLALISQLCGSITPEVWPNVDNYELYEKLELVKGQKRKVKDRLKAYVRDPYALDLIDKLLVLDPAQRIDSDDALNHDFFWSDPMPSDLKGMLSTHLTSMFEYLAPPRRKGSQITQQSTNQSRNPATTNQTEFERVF
Sequence of Voltage-gated inwardly rectifying potassium channel KCNH2 (Q12809 whole entry): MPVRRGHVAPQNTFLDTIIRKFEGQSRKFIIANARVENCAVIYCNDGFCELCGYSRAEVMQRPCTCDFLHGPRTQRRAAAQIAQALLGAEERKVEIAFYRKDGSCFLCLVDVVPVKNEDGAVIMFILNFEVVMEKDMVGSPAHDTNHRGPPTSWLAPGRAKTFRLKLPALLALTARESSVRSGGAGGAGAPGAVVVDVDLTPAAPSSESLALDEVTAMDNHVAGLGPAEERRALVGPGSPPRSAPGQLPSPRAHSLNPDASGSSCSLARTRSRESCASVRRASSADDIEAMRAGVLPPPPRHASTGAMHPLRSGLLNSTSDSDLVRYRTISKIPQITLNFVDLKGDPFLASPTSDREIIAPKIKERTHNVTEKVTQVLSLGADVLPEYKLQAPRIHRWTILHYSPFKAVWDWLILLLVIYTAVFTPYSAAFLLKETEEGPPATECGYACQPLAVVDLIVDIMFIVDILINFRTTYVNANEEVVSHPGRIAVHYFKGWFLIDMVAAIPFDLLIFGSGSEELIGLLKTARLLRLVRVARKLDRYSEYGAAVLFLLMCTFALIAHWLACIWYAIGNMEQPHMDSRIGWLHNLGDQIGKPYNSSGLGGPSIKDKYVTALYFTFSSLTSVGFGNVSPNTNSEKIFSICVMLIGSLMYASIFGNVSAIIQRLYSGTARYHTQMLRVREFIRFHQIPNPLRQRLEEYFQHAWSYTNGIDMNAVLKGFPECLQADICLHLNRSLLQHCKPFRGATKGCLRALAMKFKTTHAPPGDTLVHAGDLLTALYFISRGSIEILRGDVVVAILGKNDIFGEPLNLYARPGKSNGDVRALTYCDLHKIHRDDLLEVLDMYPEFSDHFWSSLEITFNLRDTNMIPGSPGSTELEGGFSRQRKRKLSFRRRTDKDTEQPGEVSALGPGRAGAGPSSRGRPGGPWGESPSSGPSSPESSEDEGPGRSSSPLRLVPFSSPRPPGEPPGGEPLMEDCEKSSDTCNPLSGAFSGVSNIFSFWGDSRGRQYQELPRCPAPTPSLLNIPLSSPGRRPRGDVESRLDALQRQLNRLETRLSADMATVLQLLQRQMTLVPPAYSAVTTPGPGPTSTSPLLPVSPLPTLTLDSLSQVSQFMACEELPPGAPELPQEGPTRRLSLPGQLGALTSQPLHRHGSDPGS
Sequence of Cyclin-dependent kinase 1 (P06493 whole entry): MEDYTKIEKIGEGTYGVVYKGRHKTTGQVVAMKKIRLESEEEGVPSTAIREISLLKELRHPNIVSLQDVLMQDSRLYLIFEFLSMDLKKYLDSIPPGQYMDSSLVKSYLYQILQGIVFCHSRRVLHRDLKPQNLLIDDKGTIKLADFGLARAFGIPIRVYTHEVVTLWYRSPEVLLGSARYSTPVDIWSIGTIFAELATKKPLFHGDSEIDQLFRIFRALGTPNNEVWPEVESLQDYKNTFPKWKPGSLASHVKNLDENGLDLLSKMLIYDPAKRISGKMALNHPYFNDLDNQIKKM
Sequence of Cytochrome P450 2C19 (P33261 whole entry): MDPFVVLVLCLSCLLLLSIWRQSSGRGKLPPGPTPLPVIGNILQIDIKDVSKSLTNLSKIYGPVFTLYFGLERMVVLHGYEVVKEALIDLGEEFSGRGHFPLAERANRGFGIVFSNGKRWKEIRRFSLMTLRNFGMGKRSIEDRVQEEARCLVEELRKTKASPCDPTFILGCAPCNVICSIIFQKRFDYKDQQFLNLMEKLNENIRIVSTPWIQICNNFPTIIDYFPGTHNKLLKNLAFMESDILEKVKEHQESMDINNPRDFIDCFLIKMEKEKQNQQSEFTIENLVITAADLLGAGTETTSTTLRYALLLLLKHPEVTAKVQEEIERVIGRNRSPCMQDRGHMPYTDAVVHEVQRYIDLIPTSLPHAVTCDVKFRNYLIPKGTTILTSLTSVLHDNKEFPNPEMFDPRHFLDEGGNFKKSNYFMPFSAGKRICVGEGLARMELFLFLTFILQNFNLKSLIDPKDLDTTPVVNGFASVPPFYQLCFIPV
Sequence of Cytochrome P450 3A4 (P08684 whole entry): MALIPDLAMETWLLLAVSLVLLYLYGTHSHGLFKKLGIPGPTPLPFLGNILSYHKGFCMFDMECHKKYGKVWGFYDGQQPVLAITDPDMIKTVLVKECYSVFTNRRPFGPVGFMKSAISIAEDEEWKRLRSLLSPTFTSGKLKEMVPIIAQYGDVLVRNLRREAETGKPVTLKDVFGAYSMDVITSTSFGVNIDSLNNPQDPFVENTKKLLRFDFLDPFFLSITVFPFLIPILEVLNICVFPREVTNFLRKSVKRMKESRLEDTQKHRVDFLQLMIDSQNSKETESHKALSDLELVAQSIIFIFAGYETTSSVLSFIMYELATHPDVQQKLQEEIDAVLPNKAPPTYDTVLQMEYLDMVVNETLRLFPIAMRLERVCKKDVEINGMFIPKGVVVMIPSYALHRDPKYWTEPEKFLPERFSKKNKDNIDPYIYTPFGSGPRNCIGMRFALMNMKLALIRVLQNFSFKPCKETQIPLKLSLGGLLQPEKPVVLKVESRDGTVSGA
Sequence of Cytochrome P450 2C9 (P11712 whole entry): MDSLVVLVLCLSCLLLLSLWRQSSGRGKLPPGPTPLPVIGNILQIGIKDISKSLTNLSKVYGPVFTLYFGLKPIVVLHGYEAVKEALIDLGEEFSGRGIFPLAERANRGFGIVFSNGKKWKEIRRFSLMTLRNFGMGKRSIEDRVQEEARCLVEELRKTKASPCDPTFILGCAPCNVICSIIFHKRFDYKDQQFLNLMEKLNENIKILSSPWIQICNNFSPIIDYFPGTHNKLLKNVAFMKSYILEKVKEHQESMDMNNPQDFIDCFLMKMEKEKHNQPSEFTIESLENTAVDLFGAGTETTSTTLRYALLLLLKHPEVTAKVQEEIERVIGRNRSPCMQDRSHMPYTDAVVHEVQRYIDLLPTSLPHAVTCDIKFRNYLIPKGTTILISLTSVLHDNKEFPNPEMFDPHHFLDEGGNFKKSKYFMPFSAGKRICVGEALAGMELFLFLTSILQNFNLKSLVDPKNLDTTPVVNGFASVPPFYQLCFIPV
Sequence of Cytochrome P450 2D6 (P10635 whole entry): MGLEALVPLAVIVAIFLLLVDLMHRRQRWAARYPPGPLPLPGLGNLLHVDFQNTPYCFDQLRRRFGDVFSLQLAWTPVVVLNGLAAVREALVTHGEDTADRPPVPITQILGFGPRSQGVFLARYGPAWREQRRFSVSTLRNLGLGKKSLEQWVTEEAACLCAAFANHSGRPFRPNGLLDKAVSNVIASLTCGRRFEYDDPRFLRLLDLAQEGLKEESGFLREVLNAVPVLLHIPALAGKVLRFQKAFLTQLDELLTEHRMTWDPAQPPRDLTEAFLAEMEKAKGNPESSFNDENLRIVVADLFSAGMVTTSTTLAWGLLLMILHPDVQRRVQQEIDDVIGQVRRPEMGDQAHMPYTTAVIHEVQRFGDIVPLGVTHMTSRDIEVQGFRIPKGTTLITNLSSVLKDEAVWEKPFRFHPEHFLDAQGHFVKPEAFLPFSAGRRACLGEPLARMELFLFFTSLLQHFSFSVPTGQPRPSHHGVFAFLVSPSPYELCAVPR

For `Cc1ncc(-c2nc(Nc3ccc(C(=O)N4CCCN(C)CC4)cc3)ncc2F)n1C(C)C`, the Activity [1] was > 32 µM, the pKa [2] was 8.1 and the Activity [3] was 0.012 µM. The logD [4] was 2, the AUC [5] was 0.3 µM·h and the IC50 [6] was 5 nM. The solubility thermodynamic at 24 h (physchem) was > 2600 µM, the IC50 (LoVo) was 40 nM and the fraction unbound [7] was 0.07. It also gave an IC50 [8] of 2 nM, a clearance [9] of 28 mL/min/kg and a Vd [10] of 1.5 L/kg.

In the case of `Cc1ncc(-c2ccnc(Nc3ccc(C(=O)N4CCN(C)CC4)cc3)n2)n1C(C)C`, the pKa [2] is reported as 7, the IC50 [6] is reported as 71 nM and the IC50 (LoVo) is reported as 520 nM. For the same compound, the IC50 [8] was 9 nM.

With `CN[C@H]1CCN(C(=O)c2ccc(Nc3ncc(F)c(-c4cnc(C)n4C(C)C)n3)cc2)C1` the Activity [1] was 95 µM, the clearance [11] was 30 mL/min/kg and the solubility [12] was > 50 µM. The Activity (Cytochrome P450 2C9) was > 10 µM, the clearance [13] was 35 mL/min/kg and the half-life [14] was > 18 h. For the same compound, the AUC (Mus musculus) was 2.4 µM·h, the logD [4] was 1.45 and the IC50 [6] was 2 nM. The fraction unbound [15] was 0.04, the half-life [16] was > 18 h and the Activity (Cytochrome P450 1A2) was > 10 µM. The PPB (Plasma) was > 67%, the Vd [17] was 5.1 L/kg and the IC50 (LoVo) was 39 nM. For the same compound, the clearance [18] was 19 mL/min/kg, the Activity (Cytochrome P450 2D6) was > 10 µM and the half-life [19] was > 18 h. For the same compound, the Activity (Cytochrome P450 3A4) was > 10 µM, the AUC (Canis familiaris [20]) was 0.18 µM·h and the “%hepatic blood flow” value (Canis familiaris [21]) was 58%. For the same compound, the half-life [22] was 3.4 h, the half-life [23] was 32.3 h and the AUC (Rattus norvegicus) was 1.38 µM·h. The IC50 [8] was 2 nM, the Vd [24] was 40.4 L/kg and the half-life [25] was > 24 h. The Vd [26] was 6.4 L/kg, the Activity (Cytochrome P450 2C19) was > 10 µM and the inhibition in vivo at 15 mg/kg (SW-620) was 55%. The half-life [27] was 3.6 h, the half-life [28] was > 100 days and the fraction unbound [29] was 0.16.

`Cc1ncc(-c2nc(Nc3ccc(C(=O)N4CCN(C)CC4)cc3)ncc2F)n1C(C)C` showed a pKa [2] of 6.9, an IC50 [6] of 130 nM and a solubility thermodynamic at 24 h (physchem) of 60 µM (≈ 26.3 µg/mL). For the same compound, the IC50 (LoVo) was 170 nM and the IC50 [8] was 18 nM.

In the case of `Cc1ncc(-c2ccnc(Nc3ccc(C(=O)NCCN(C)C)c(F)c3)n2)n1C(C)C`, the IC50 [6] is reported as 29 nM, the solubility thermodynamic at 24 h (physchem) is reported as > 1900 µM and the IC50 (LoVo) is reported as 3 nM.

For `Cc1ncc(-c2ccnc(Nc3ccc(C(=O)NC4CCN(C)CC4)cc3)n2)n1C(C)C`, the IC50 [6] was 180 nM, the IC50 (LoVo) was 2100 nM and the IC50 [8] was 37 nM.

With `Cc1ncc(-c2ccnc(Nc3ccc(C(=O)N4CC[C@H](NC5CC5)C4)cc3)n2)n1C(C)C` the IC50 [6] was 100 nM, the IC50 (LoVo) was 250 nM and the IC50 [8] was < 1 nM.

For `Cc1ncc(-c2ccnc(Nc3ccc(C(=O)NC4CCN(C)CC4)c(F)c3)n2)n1C(C)C`, the IC50 [6] was 150 nM, the solubility thermodynamic at 24 h (physchem) was > 2200 µM and the IC50 (LoVo) was 200 nM. It also gave an IC50 [8] of 11 nM.

Compound `Cc1ncc(-c2nc(Nc3ccc(C(=O)NC4CCN(C)CC4)c(F)c3)ncc2F)n1C(C)C` has a pKa [2] of 8.8, an Activity [3] of 0.013 µM and a logD [4] of 2.4. It also gave an IC50 [6] of 12 nM, a clearance [30] of 16 mL/min/kg and a solubility thermodynamic at 24 h (physchem) of 270 µM (≈ 127 µg/mL). For the same compound, the IC50 (LoVo) was 80 nM, the Vd [31] was 5.2 L/kg and the AUC [32] was 1.3 µM·h. The fraction unbound [7] was 0.06 and the IC50 [8] was 1 nM.

Compound `Cc1ncc(-c2nc(Nc3ccc(C(=O)N4CC[C@H](N(C)C)C4)cc3)ncc2F)n1C(C)C` has an Activity [1] of 33 µM, a pKa [2] of 7.4 and an Activity [3] of 0.005 µM. It also gave a logD [4] of 2.1, an IC50 [6] of 11 nM and a clearance [30] of 23 mL/min/kg. The solubility thermodynamic at 24 h (physchem) was > 2100 µM, the IC50 (LoVo) was 37 nM and the Vd [31] was 3.4 L/kg. The AUC [32] was 0.8 µM·h and the fraction unbound [7] was 0.04.

In the case of `Cc1ncc(-c2nc(Nc3ccc(C(=O)N4CC[C@@H](N(C)C)C4)cc3)ncc2F)n1C(C)C`, the IC50 [6] is reported as 11 nM, the solubility thermodynamic at 24 h (physchem) is reported as > 2400 µM and the IC50 (LoVo) is reported as 70 nM.

Work on `CN[C@H]1CCN(C(=O)c2ccc(Nc3nccc(-c4cnc(C)n4C(C)C)n3)cc2)C1` yielded an IC50 [6] of 9 nM, an IC50 (LoVo) of 180 nM and an IC50 [8] of 2 nM.

Compound `CCCN(C)[C@H]1CCN(C(=O)c2ccc(Nc3nccc(-c4cnc(C)n4C(C)C)n3)cc2)C1` has an IC50 [6] of 120 nM, an IC50 (LoVo) of 62 nM and an IC50 [8] of 4 nM.

For `Cc1ncc(-c2nc(Nc3ccc(C(=O)NC4CCN(C)CC4)cc3)ncc2F)n1C(C)C`, the IC50 [6] was 50 nM, the solubility thermodynamic at 24 h (physchem) was > 2500 µM and the IC50 (LoVo) was 320 nM. For the same compound, the IC50 [8] was 36 nM.

For `Cc1ncc(-c2nc(Nc3ccc(C(=O)NCCN(C)C)c(F)c3)ncc2F)n1C(C)C`, the Activity [1] was > 65 µM, the pKa [2] was 8.6 and the Activity [3] was 0.003 µM. The logD [4] was 2.3, the IC50 [6] was < 1 nM and the clearance [30] was 24 mL/min/kg. For the same compound, the solubility thermodynamic at 24 h (physchem) was > 2700 µM, the IC50 (LoVo) was 2 nM and the Vd [31] was 9.8 L/kg. The AUC [32] was 0.8 µM·h, the fraction unbound [7] was 0.07 and the IC50 [8] was 2 nM.
